# From publication PMC5650372 (Oncotarget, 2017)
# Assays:
# [1] = system: pAKT S473 in NCI-H441 cells; assay: Western blot quantitation of pAKT S473 (mTORC2 biomarker); assay type: cell-based; details: Homo sapiens; NCI-H441, presence of bleomycin, 2 hrs, n=3; read-out: IC50 of pAKT S473 inhibition
# [2] = system: NHEJ activity; assay: Reconstituted cell-free NHEJ assay (MCF7 nuclear extract); assay type: biochemical, human
# Method: MCF7 human breast cancer cells (5-10 x 10^7 each) were incubated in 5 pellet volumes of cold hypotonic buffer (10 mM Hepes-KOH, pH 7.5, 1.5 mM MgCl2, 5 mM KCl, and 0.5 mM DTT) for 20 minutes and were homogenized in a tight-fitting glass dounce homogenizer for 10-20 strokes. The nuclei were then collected by low-speed centrifugation and nuclear proteins were extracted by high-salt buffer (50 mM Tris-HCl, pH 7.5, 1 M KCl, 2 mM EDTA, 1 mM DTT, and protease inhibitors). The extracted nuclear proteins were dialyzed against 1 L of dialysis buffer (20 mM Tris-HCl, pH 8.0, 20% glycerol, 0.1 M KOAc, 0.5 mM EDTA, and 1 mM DTT) for 1 hour and were used for the in vitro NHEJ assay.
# (§1) Nuclear protein (10-20 μg) prepared above was pre-treated with compounds as indicated on ice for 15 minutes. Twenty-five nanograms of EcoRI-digested pBluescript DNA (Stratagene, La Jolla, CA) were then added and the mixture was adjusted to 20 μL final volume in NHEJ buffer (50 mM Hepes-KOH pH 8.0, 40 mM KOAc, 1 mM Mg(OAc)2, 1 mM ATP, 0.1 mg/mL BSA, and 1 mM DTT). After incubation at 25°C for 60 minutes, the reaction was terminated by incubation with 1 μg/mL RNase A for 10 minutes followed by treatment with 2 mg/mL Protease K in 0.5% SDS at 55°C for 30 minutes. The reactions were run onto 0.8% agarose and the gel was stained with Sybr Green (S756, Invitrogen, Carlsbad, CA). For Western blots, an aliquot of the same reaction mixture described above was subjected to SDS-PAGE, transferred to the PVDF membrane, and immunoblotted with indicated antibodies.
# [3] = system: NHEJ in Cal-51 cells; assay: 384-well image-based cellular NHEJ assay; assay type: cell-based; details: Homo sapiens; Cal-51, n=3
# From the text: (§2) ATM and ATR assay and IC50 determination Cellular NHEJ assay
# (§3) HA-ATM and FLAG-ATR (HA-labeled ATM, and The experimental design is illustrated in FLAG-labeled ATR) were each transiently expressed in Supplementary Figure 4. Cal-51 breast cancer cells HEK293 cells (293FT cells, Invitrogen Cat: R700-07) were separately transfected with pEGFP plasmid (6085-using Lipofectamine as transfection reagent. Cells were 1, Clontech, Mountain View, CA) digested with either harvested 6 days post transfection and spun down to EcoRI (to measure NHEJ) or StuI (to measure transfection separate cells from media. Cells were then lysed using a efficiency) using a Amaxa cell line nuclearfector kit V lysis buffer (50 mM Tris buffer, (Tris(hydroxylmethyl)- (CCA-1003, Lonza). Immediately after the transfection, aminomethane, pH 7.5), 100 mM NaCl, 50 mM βGOP, the cells were treated with DMSO or compounds at 10% Glycerol, 0.5% Tween 20, 1 mM EDTA, 25 mM indicated concentrations for 24 hours and GFP-positive sodium fluoride (NaF), 20 nM microcystine, 2 mM cells were counted under a fluorescent microscope. NHEJ phenylmethylsulfonylfluoride (PMSF) and protease activity was calculated by the number of GFP-positive inhibitor cocktail) followed by sonication 3 times and a cells in cells transfected with pEGFP-EcoRI divided by final spin at 20,000 rpm for 30 minutes to generate a clear that in cells transfected with pEGFP-StuI, multiplied by lysate. To perform the immunoprecipitation, enzymes were 100. […]
# (§4) or FLAG tags. Beads plus enzymes were then washed 3 developed. Different cell lines were transfected using times with lysis buffer and spun down at 1000 rpm for the procedure described above and subsequently seeded 1 minute. Beads plus enzymes were resuspended in lysis into 384-well plates at optimized density for individual buffer and kept at 4°C until assay. Assays for ATM and cell lines. Cells were then treated with compounds at ATR were conducted in a 33P radioactive assay format. increasing concentrations. GFP+ cells were imaged Assay buffer contained the following reagents: 1 mg/mL and quantitated using the IncuCyte (Essen Bioscience, GST-p53 (glutathione S-transferase–p53 fusion protein) Ann Arbor, MI). NHEJ activity was then normalized substrate (expressed in-house), 20 μg/mL calf thymus to the DMSO control and fitted to the Sigmoidal Dose-DNA activator (Sigma), 100 μg/mL BSA, 200 μM EGTA Response Model (IDBS XLFit Model 205; London, UK)
# [4] = system: NHEJ in PC3 prostate cancer cells; assay: 384-well image-based cellular NHEJ assay; assay type: cell-based; details: Homo sapiens; PC3, n=3
# From the text: as §2, §3, §4
# [5] = system: pATM S1981; assay: Western blot of cell-free NHEJ reaction (MCF7 nuclear extract); assay type: biochemical, human; details: MCF7 nuclear extract with linear dsDNA
# Method: as §1
# [6] = system: pChk2 T68; assay: as above; assay type: biochemical, human; details: MCF7 nuclear extract, 0.05, 0.5 or 5 μM
# Method: as §1
# [7] = system: pDNA-PK S2056; assay: as above; assay type: biochemical, human
# Method: as §1
# [8] = system: ATM-proficient cell lines (MDA-MB-231, MCF7, CAL51, HCC1937); assay: Colony-formation assay; assay type: cell-based, human; details: versus ATM-deficient HCC1187
# Method: MCF7, Cal51, MDA-MB-231, H1937, MDA-MB-175VII and HCC1187 human breast cancer cell lines were plated at 2000 cells per well in 6-well plates and HCC1500 breast cancer cell line was plated at 10,000 cells per well in 6-well plates and cultured overnight. Cells were then treated with compounds at indicated concentrations. Media and compounds were changed every three days. Plates were incubated for a total of about two weeks then fixed and stained using the DIFF QUIK staining kit (Microptic, Barcelona, Spain). Colonies were imaged and counted.
# [9] = system: panel of 123 cancer cell lines; assay: Proliferation assay, whole panel; assay type: cell-based; details: Homo sapiens; range over 123 cell lines; read-out: GI50 values across the cancer cell line panel
# Method: (§5) Proliferation assays were performed as previously described. […] The concentration of compound required for a 2-fold induction of Caspase was determined (CalX).
# [10] = system: hematological and solid tumor cell lines; assay: Caspase 3/7-Glo apoptosis assay; assay type: cell-based, human; details: 24 h, subset of hematological and solid tumor cell lines
# Method: as §5
# [11] = system: pDNA-PK S2056 in HT29 and MDA-MB-436 cells; assay: Immunoblotting of intact cells with bleomycin; assay type: cell-based, human; details: 5 μM with 1.5 mU/mL bleomycin, 2 or 12 hours
# Method: The cell lysates were subjected to SDS-PAGE and immunoblotting with indicated antibodies. […] The pDNA-PK bands were quantified by Odyssey imaging software (LI-COR, Lincoln, NE) and normalized to total DNA-PK. IC50 values were determined by Excelfit (London, UK).
smiles,measurement,setting,value
"CCN1C(=O)CNc2ncc(-c3ccc(-c4nc[nH]n4)nc3C)nc21 [CC-115, 1-ethyl-7-(2-methyl-6-(1H-1,2,4-triazol-3-yl)pyridin-3yl)-3,4-dihydropyrazino[2,3-b]pyrazin-2(1H)-one]",IC50,[1],0.136 ± 0.062 µM
same,"inhibition of NHEJ activity, cell-free",[2]; 0.5 μM,Partial inhibition
same,"inhibition of NHEJ activity, cell-free",[2]; 5 μM,complete inhibition
same,IC50,[3],3.15 ± 1.33 µM
same,IC50,[4],2.72 ± 1.69 µM
same,"inhibition of pATM S1981, cell-free",[5],reduction
same,"inhibition of pChk2 T68, cell-free",[6],also inhibited
same,"inhibition of pDNA-PK S2056, cell-free",[7],inhibited
same,ATM-proficient cell lines less sensitive to inhibition of colony formation,[8],100 fold
same,GI50,[9],0.015 to 1.77 µM
same,apoptosis induction (Caspase 3/7),[10],induced strong apoptosis
same,DNA-PK activity (pDNA-PK S2056),[11],significantly inhibited
